# In US20230391772A1, “METHODS AND COMPOSITIONS FOR TARGETED PROTEIN DEGRADATION” (Ranok Therapeutics (Hangzhou) Co. Ltd., priority 2020, published 2023):
# How the values were obtained:
# [1] = test system: MIA PaCa-2 human pancreatic carcinoma; test: MIA PaCa-2 CCK-8 proliferation assay; assay type: cell-based; conditions: Homo sapiens, MIA PaCa-2, 72 h, MIA PaCa-2 cells
# In short: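 Percent inhibition derived from CCK-8 optical signal, normalised between DMSO-only cells (0%) and cell-free medium containing DMSO as background. Cells: MIA PaCa-2 carrying 2 KRAS(G12C) copies; NCI-H358, NCI-H23 carrying 1 copy apiece. Concentrations spanned 1.02 nM–20 μM in threefold increments.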
# [2] = target: T1, KRAS(G12C) (Homo sapiens, UniProt P01116, G12C); test: KRAS(G12C)/SOS1 homogeneous time-resolved fluorescence (HTRF) assay; parameters: purchased Cisbio 63ADK000CB16PEG; conditions: absence of GTP, 4° C. for 3 hr, read-out: KRAS (G12C) binding
# T1 sequence (P01116 1-188 isoform P01116-2 G12C): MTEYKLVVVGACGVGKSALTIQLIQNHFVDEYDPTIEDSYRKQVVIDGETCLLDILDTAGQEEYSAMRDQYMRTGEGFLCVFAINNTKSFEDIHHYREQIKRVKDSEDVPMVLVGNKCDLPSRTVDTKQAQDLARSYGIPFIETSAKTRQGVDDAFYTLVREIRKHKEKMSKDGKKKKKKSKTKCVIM
# In short: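 HTRF kit measuring compound-induced block of KRAS(G12C)-SOS1 interaction without GTP. Compounds tested as 3-fold serial dilutions down to 1.02 nM, incubated with reaction components 3 h at 4 °C in sealed plates before fluorescence read.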
# [3] = target: T1, KRAS(G12C); test: KRAS(G12C) Western blot protein degradation assay in LU65A cells; assay type: cell-based; parameters: LU65A human lung cancer cell line, which expresses KRAS(G12C); host or cells: LU65A; conditions: 6 hr
# In short: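 Cells treated with compound at various concentrations at 37 °C for 48 hr (MIA PaCa-2) or 6 hr (LU65A), then lysed in RIPA. Protein-normalized lysates immunoblotted for KRAS with β-actin, fluorescence quantified; DC50 is the concentration giving 50% of maximal KRAS degradation.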
Compound,EC50 [1],IC50 [2],DC50 [3]
"C=CC(=O)N1CCN(c2nc(OC[C@@H]3CC[C@H](CN4CCN(C(=O)C5CCN(Cc6ccc(-n7c(C(=O)NCC)nnc7-c7cc(CC)c(O)cc7O)cc6)CC5)CC4)N3C)nc3c2CCN(c2cccc4cccc(Cl)c24)C3)C[C@@H]1CC#N [Compound 244, 4-(4-{[4-(4-{[(2R,5S)-5-({[7-(8-chloronaphthalen-1-yl)-4-[(3S)-3-(cyanomethyl)-4-(prop-2-enoyl)piperazin-1-yl]-5H,6H,8H-pyrido[3,4-d]pyrimidin-2-yl]oxy}methyl)-1-methylpyrrolidin-2-yl]methyl}piperazine-1-carbonyl)piperidin-1-yl]methyl}phenyl)-N-ethyl-5-(5-ethyl-2,4-dihydroxyphenyl)-1,2,4-triazole-3-carboxamide]",< 100 nM,< 100 nM,100 to 1000 nM
"C=CC(=O)N1CCN(c2nc(OC[C@@H]3C[C@H](N4CCC5(CCN(Cc6ccc(-n7c(O)nnc7-c7cc(C(C)C)c(O)cc7O)cc6)CC5)CC4)CN3C)nc3c2CCN(c2cccc4ccccc24)C3)C[C@@H]1CC#N [Compound 248, 2-[(2S)-4-(2-{[(2S,4S)-4-[9-({4-[3-(2,4-dihydroxy-5-isopropylphenyl)-5-hydroxy-1,2,4-triazol-4-yl]phenyl}methyl)-3,9-diazaspiro[5.5]undecan-3-yl]-1-methylpyrrolidin-2-yl]methoxy}-7-(naphthalen-1-yl)-5H,6H,8H-pyrido[3,4-d]pyrimidin-4-yl)-1-(prop-2-enoyl)piperazin-2-yl]acetonitrile]",100 to 1000 nM,100 to 1000 nM,100 to 1000 nM
"C=CC(=O)N1CCN(c2nc(OC[C@@H]3C[C@H](N4CCN(Cc5ccc(-n6c(O)nnc6-c6cc(C)c(O)cc6O)cc5)CC4)CN3C)nc3c2CCN(c2cccc4cccc(Cl)c24)C3)C[C@@H]1CC#N [Compound 252, 2-[(2S)-4-[7-(8-chloronaphthalen-1-yl)-2-{[(2S,4S)-4-[4-({4-[3-(2,4-dihydroxy-5-methylphenyl)-5-hydroxy-1,2,4-triazol-4-yl]phenyl}methyl)piperazin-1-yl]-1-methylpyrrolidin-2-yl]methoxy}-5H,6H,8H-pyrido[3,4-d]pyrimidin-4-yl]-1-(prop-2-enoyl)piperazin-2-yl]acetonitrile]",> 1000 nM,< 100 nM,> 1000 nM
"C=CC(=O)N1CCN(c2nc(OC[C@@H]3C[C@H](N4CCN(CC5CCN(Cc6ccc(-n7c(O)nnc7-c7cc(C(C)C)c(O)cc7O)cc6)CC5)CC4)CN3C)nc3c2CCN(c2cccc4cccc(Cl)c24)C3)C[C@@H]1CC#N [Compound 275, 2-[(2S)-4-[7-(8-chloronaphthalen-1-yl)-2-{[(2S,4S)-4-(4-{[1-({4-[3-(2,4-dihydroxy-5-isopropylphenyl)-5-hydroxy-1,2,4-triazol-4-yl]phenyl}methyl)piperidin-4-yl]methyl}piperazin-1-yl)-1-methylpyrrolidin-2-yl]methoxy}-5H,6H,8H-pyrido[3,4-d]pyrimidin-4-yl]-1-(prop-2-enoyl)piperazin-2-yl]acetonitrile]",100 to 1000 nM,< 100 nM,100 to 1000 nM
"C=C(F)C(=O)N1CCN(c2nc(OC[C@@H]3CC[C@H](CN4CCN(Cc5ccc(-n6c(O)nnc6-c6cc(C(C)C)c(O)cc6O)cc5)CC4)N3C)nc3c2CCN(c2cccc4ccccc24)C3)C[C@@H]1CC#N [Compound 286, 2-[(2S)-4-(2-{[(2S,5R)-5-{[4-({4-[3-(2,4-dihydroxy-5-isopropylphenyl)-5-hydroxy-1,2,4-triazol-4-yl]phenyl}methyl)piperazin-1-yl]methyl}-1-methylpyrrolidin-2-yl]methoxy}-7-(naphthalen-1-yl)-5H,6H,8H-pyrido[3,4-d]pyrimidin-4-yl)-1-(2-fluoroprop-2-enoyl)piperazin-2-yl]acetonitrile]",< 100 nM,100 to 1000 nM,> 1000 nM
"C=CC(=O)N1CCN(c2nc(OC[C@@H]3CC[C@H](CN4CCN(Cc5ccc(-n6c(C(=O)NCC)nnc6-c6cc(C(C)C)c(O)cc6O)cc5)CC4)N3C)nc3c2CCN(c2cccc4ccccc24)C3)C[C@@H]1CC#N [Compound 288, 4-{4-[(4-{[(2R,5S)-5-[({4-[(3S)-3-(cyanomethyl)-4-(prop-2-enoyl)piperazin-1-yl]-7-(naphthalen-1-yl)-5H,6H,8H-pyrido[3,4-d]pyrimidin-2-yl}oxy)methyl]-1-methylpyrrolidin-2-yl]methyl}piperazin-1-yl)methyl]phenyl}-5-(2,4-dihydroxy-5-isopropylphenyl)-N-ethyl-1,2,4-triazole-3-carboxamide]",< 100 nM,< 100 nM,> 1000 nM
"C=CC(=O)N1CCN(c2nc(OC[C@@H]3C[C@H](N4CCN(Cc5ccc(-n6c(C(=O)NCC)nnc6-c6cc(C(C)C)c(O)cc6O)cc5)CC4)CN3C)nc3c2CCN(c2cccc4cccc(C)c24)C3)C[C@@H]1CC#N [Compound 280, 4-[4-({4-[(3S,5S)-5-[({4-[(3S)-3-(cyanomethyl)-4-(prop-2-enoyl)piperazin-1-yl]-7-(8-methylnaphthalen-1-yl)-5H,6H,8H-pyrido[3,4-d]pyrimidin-2-yl}oxy)methyl]-1-methylpyrrolidin-3-yl]piperazin-1-yl}methyl)phenyl]-5-(2,4-dihydroxy-5-iso-propylphenyl)-N-ethyl-1,2,4-triazole-3-carboxamide]",< 100 nM,< 100 nM,100 to 1000 nM
"C=CC(=O)N1CCN(c2nc(OC[C@@H]3C[C@H](N4CCN(C(=O)C5CCN(Cc6ccc(-n7c(O)nnc7-c7cc(C)c(O)cc7O)cc6)CC5)CC4)CN3C)nc3c2CCN(c2cccc4cccc(Cl)c24)C3)C[C@@H]1CC#N [Compound 265, 2-[(2S)-4-[7-(8-chloronaphthalen-1-yl)-2-{[(2S,4S)-4-{4-[1-({4-[3-(2,4-dihydroxy-5-methylphenyl)-5-hydroxy-1,2,4-triazol-4-yl]phenyl}methyl)piperidine-4-carbonyl]piperazin-1-yl}-1-methylpyrrolidin-2-yl]methoxy}-5H,6H,8H-pyrido[3,4-d]pyrimidin-4-yl]-1-(prop-2-enoyl)piperazin-2-yl]acetonitrile]",> 1000 nM,< 100 nM,> 1000 nM
"C=CC(=O)N1CCN(c2nc(OC[C@@H]3CC[C@H](CN4CCN(Cc5ccc(-n6c(C(=O)NCC)nnc6-c6cc(C(C)C)c(O)cc6O)cc5)CC4)N3C)nc3c2CCN(c2cccc4cccc(Cl)c24)C3)C[C@@H]1CC#N [Compound 263, 4-{4-[(4-{[(2R,5S)-5-({[7-(8-chloronaphthalen-1-yl)-4-[(3S)-3-(cyanomethyl)-4-(prop-2-enoyl)piperazin-1-yl]-5H,6H,8H-pyrido[3,4-d]pyrimidin-2-yl]oxy}methyl)-1-methylpyrrolidin-2-yl]methyl}piperazin-1-yl)methyl]phenyl}-5-(2,4-dihydroxy-5-isopropylphenyl)-N-ethyl-1,2,4-triazole-3-carboxamide]",< 100 nM,< 100 nM,> 1000 nM
"C=CC(=O)N1CCN(c2nc(OC[C@@H]3CC[C@H](CN4CCN(Cc5ccc(-n6c(C(=O)NCC)nnc6-c6cc(C(C)C)c(O)cc6O)cc5)CC4)N3C)nc3c2CCN(c2cccc4cccc(C)c24)C3)C[C@@H]1CC#N [Compound 289, 4-{4-[(4-{[(2R,5S)-5-[({4-[(3S)-3-(cyanomethyl)-4-(prop-2-enoyl)piperazin-1-yl]-7-(8-methylnaphthalen-1-yl)-5H,6H,8H-pyrido[3,4-d]pyrimidin-2-yl}oxy)methyl]-1-methylpyrrolidin-2-yl]methyl}piperazin-1-yl)methyl]phenyl}-5-(2,4-dihydroxy-5-isopropylphenyl)-N-ethyl-1,2,4-triazole-3-carboxamide]",< 100 nM,< 100 nM,> 1000 nM
"C=CC(=O)N1CCN(c2nc(OC[C@@H]3CC[C@H](CN4CCN(Cc5ccc(-n6c(C(=O)NCC)nnc6-c6cc(C(C)C)c(O)cc6O)cc5)CC4)N3C)nc3c2CCN(c2cccc(C)c2C)C3)C[C@@H]1CC#N [Compound 282, 4-{4-[(4-{[(2R,5S)-5-[({4-[(3S)-3-(cyanomethyl)-4-(prop-2-enoyl)piperazin-1-yl]-7-(2,3-dimethylphenyl)-5H,6H,8H-pyrido[3,4-d]pyrimidin-2-yl}oxy)methyl]-1-methylpyrrolidin-2-yl]methyl}piperazin-1-yl)methyl]phenyl}-5-(2,4-dihydroxy-5-isopropylphenyl)-N-ethyl-1,2,4-triazole-3-carboxamide]",100 to 1000 nM,< 100 nM,100 to 1000 nM
"C=CC(=O)N1CCN(c2nc(OC[C@@H]3CC[C@H](CN4CCN(C(=O)C5CCN(Cc6ccc(-n7c(C(=O)NCC)nnc7-c7cc(C(C)C)c(O)cc7O)cc6)CC5)CC4)N3C)nc3c2CCN(c2cccc4ccc(F)c(Cl)c24)C3)C[C@@H]1CC#N [Compound 269, 4-(4-{[4-(4-{[(2R,5S)-5-({[7-(8-chloro-7-fluoronaphthalen-1-yl)-4-[(3S)-3-(cyanomethyl)-4-(prop-2-enoyl)piperazin-1-yl]-5H,6H,8H-pyrido[3,4-d]pyrimidin-2-yl]oxy}methyl)-1-methylpyrrolidin-2-yl]methyl}piperazine-1-carbonyl)piperidin-1-yl]methyl}phenyl)-5-(2,4-dihydroxy-5-isopropylphenyl)-N-ethyl-1,2,4-triazole-3-carboxamide]",< 100 nM,< 100 nM,> 1000 nM
